Data published in article PMC5449454, “Anti-Double-Stranded DNA IgG Participates in Renal Fibrosis through Suppressing the Suppressor of Cytokine Signaling 1 Signals” (Frontiers in Immunology, 2017).

What was measured:
[1] = test system: SOCS1, JAK2 and STAT1 in kidneys of SCID mice; experiment: Renal SOCS1/JAK2/STAT1 proteins by Western blotting, SCID mice; assay type: in vivo; details: i.v., n = 5, versus anti-dsDNA IgG alone
Text: Renal biopsies were obtained from patients with LN (n = 7), who had serum positivity of anti-dsDNA IgG (Table S1 in Supplementary Material). The diagnosis of LN was made based on the histological features of renal biopsies. For normal human controls, sera and non-lesional tissues were taken from patients (n = 5) who underwent surgical nephrectomy due to renal cell carcinoma or renal rupture (Table S1 in Supplementary Material). There was no statistical difference in term of age between the LN patients and the controls (p > 0.05). […] The MRL/lpr and MRL/MpJ mice (female, 12 or 24 weeks old, n = 5 each group) as well as SCID mice (female, 8 weeks old, n = 5 each group) were bred in the animal facility of Xi’an Jiaotong University Health Science Center. Urine, sera, and renal tissues were harvested from MRL/lpr and MRL/MpJ mice. Proteinuria was quantitated by the Coomassie brilliant blue method ([32]). […]
(§1) Fresh tissues and cell cultures were extracted for lysates with the addition of protease inhibitor cocktail (Thermo Scientific, Waltham, MA, USA). […] The band intensities were quantitated by ImageJ 1.61u software (National Institutes of Health, Bethesda, MD, USA) and normalized to β-actin values accordingly. The intensities of blank groups were set as 1 (baseline), and the relative intensities were calculated in other groups.

mesangial cells = experiment: Cell viability (PrestoBlue), mesangial cells; assay type: cell-based, murine; details: D-form ALW 1 µg/ml, 2 days
Procedure: (§2) By using a HiTrap purification kit (GE Healthcare, Port Washington, NY, USA) ([8]), anti-dsDNA IgG was purified from the culture supernatants of murine WJ31 hydridoma clone (IgG2a; Jieqing Biotech). Control murine IgG (IgG2a; Jieqing Biotech) was verified by enzyme-linked immunosorbent assay (ELISA) to determine that there was no binding to DNA antigen (data not shown). Cells were starved routinely before the 2-day stimulation of anti-dsDNA IgG or control IgG (2 µg/ml). In some experiments, mesangial cells were stimulated with anti-dsDNA IgG (2 µg/ml) that was premixed with D-form (ALWPPNLHAWVP) or scrambled (PLPHNPWVLAAW) ALW peptide (1 µg/ml). The cell viability of three types of cells was measured using PrestoBlue viability reagent (Life Technologies, Carlsbad, CA, USA).
(§3) Mesangial Glomerular Tubular cells endothelial epithelial
(§4) Supplementary Figure S7. Cell viability assays of kidney cells. (A) Murine cells were cultured in vitro, and received control or anti-dsDNA IgG stimulation (2 µg/ml, 2 days). (B) Similarly, these cells were also stimulated with scrambled or D-form ALW peptide (1 µg/ml, 2 days). The cell viability was measured using PrestoBlue viability reagent. Data were from three independent experiments. Data points and error bars […]
(§5) (also on this page, place not known: µ g/ml,2 µ g/ml,2 Cell viability (%) Cell viability (%))

[2] = test system: SOCS1, JAK2 and STAT1 in mesangial cells; experiment: SOCS1/JAK2/STAT1 proteins (IF, Western blotting), mesangial cells; assay type: cell-based, murine; details: anti-dsDNA IgG 2 µg/ml premixed with peptide 1 µg/ml, 2 days
Procedure: Immunofluorescence was carried out for both IgG deposition and SOCS1 expression in frozen sections. Routinely processed sections were incubated with rabbit anti-mouse SOCS1 and then fluorescein isothiocyanate (FITC)-conjugated goat anti-rabbit IgG (2 µg/ml; Southern Biotech, Birmingham, AL, USA) in order, or directly with goat anti-mouse IgG-FITC (Southern Biotech) alone. Sections were viewed under a digital fluorescent microscope (Carl Zeiss, Jena, Germany).
Immortal murine mesangial cells and glomerular endothelial cells (Jieqing Biotech, Wuhan, China) were cultured in RPMI 1640 medium supplemented with 10% fetal bovine serum ([8], [33]). Immortal murine proximal tubular epithelial cells (kindly provided by Dr. Cheng Pan, Wuhan University, China) were cultured in Dulbecco’s modified Eagle’s medium as described previously ([34]).
as §2, §1

[3] = test system: proximal tubular epithelial cells; experiment: Cell viability (PrestoBlue), proximal tubular epithelial cells; assay type: cell-based, murine; details: D-form ALW 1 µg/ml, 2 days
Procedure: as §2, §3, §4, §5

[4] = test system: anti-dsDNA IgG binding to dsDNA antigen; experiment: Inhibition ELISA, anti-dsDNA IgG binding to dsDNA antigen; design: species or system murine; details: anti-dsDNA IgG 2 µg/ml pre-incubated with serially diluted peptide (0.04 to 80 µg/ml); three independent experiments
Procedure: Common ELISAs (for binding to dsDNA or peptide) and inhibition ELISAs were performed as previously described ([8], [35]). Briefly, the KIR ELISA was carried out by adding biotinylated KIR peptide (DTHFRTFRSHSDYRRI, 5 µg/ml) to streptavidin-coated 96-well plates. For inhibition with KIR (or ALW) peptide, anti-dsDNA IgG (2 µg/ml) was pre-incubated with serially diluted peptide (from 0.04 to 80 µg/ml), and then transferred to antigen-coated 96-well plates. Alkaline phosphatase-conjugated goat anti-mouse IgG (2 µg/ml; Southern Biotech) was used as secondary antibody. Similarly, for inhibition with anti-dsDNA IgG, the FITC-labeled JAK2 loop peptide (LPQDKEYYKVKEP, 0.2 µg/ml) was pre-incubated with serially diluted anti-dsDNA IgG (from 0.02 to 20 µg/ml) before transfer to KIR-coated plates, which were detected for fluorescein intensity under a Perkin Elmer Reader (Winpact Scientific, Irvine, CA, USA). Cell surface ELISA was performed by growing mesangial cells in 96-well plates ([8], [35]). All peptides were synthesized by Sangon Biotech Company (Shanghai, China).

ALWPPNLHAWVP [D-form ALW, ALW peptide with two terminal residues A and P replaced with D-form ones]
renal JAK2 protein expression level, ALW plus anti-dsDNA IgG [1]: remarkable attenuation | renal STAT1 protein expression level, ALW plus anti-dsDNA IgG [1]: remarkable attenuation | cell viability (mesangial cells): no changes | JAK2 protein, ALW plus anti-dsDNA IgG (consistent with mRNA decrease) [2]: consistent changes | SOCS1 protein level, ALW plus anti-dsDNA IgG [2]: increased | STAT1 protein, ALW plus anti-dsDNA IgG (consistent with mRNA decrease) [2]: consistent changes | cell viability [3]: no changes | inhibition of anti-dsDNA IgG binding to DNA antigen [4]: inherited the inhibitory property of the (natural) ALW
